Columns and labels:
HLA-DR15 (DRB1*1501) = HLA-DR15 (DRB1*1501) (Homo sapiens, UniProt P01903+P01911); test: Peptide-MHC class II binding (HLA-DR folding assay, LOCI/AlphaScreen); details: peptide titrated, 48 h at 18 °C, LOCI, two experiments, KD values only in picture (Table S2)
Protocol: (§1) Peptide-MHC-binding assays was performed by ImmunAware (Horsholm, Denmark). Binding was measured using a Luminescent Oxygen Channeling Immunoassay (LOCI), marketed by Perkin Elmer (Hopkinton, MA, USA) as AlphaScreen. This is a nonradioactive bead-based homogenous proximity assay, where the donor beads containing a photosensitizer compound, upon excitation with light at a 680 nm wavelength, converts ambient oxygen to energy-rich, short-lived singlet oxygen; this latter is transferred to acceptor beads, in close proximity only. The acceptor beads can respond to a single oxygen with a luminescence/fluorescence cascade, leading to an amplified signal in the 520–620 nm range. There is a tag binding to the donor beads: a biotin group engineered into the HLA β chain.
(§2) The acceptor beads are linked instead to a conformation-dependent HLA class II specific antibody (L243). Thus, only when a peptide binds well the HLA class II molecule, a corrected folded HLA class II molecule is formed and can be recognized by the L243 antibody. Biotinylated recombinant HLA class II molecules were diluted from an 8 M urea buffer into a folding buffer (PBS, 20% glycerol, Protease inhibitor mix). Different peptide concentrations, between 0.13 nM and 10,000 nM, were added into the assay. The tested peptides were titrated in 5-to-8 five-fold concentration, […]. The reaction mixtures were incubated for 48 h at 18 °C to allow peptide-HLA-complex formation to reach a steady state. After incubation, 15 μL of the folding mixture was transferred to a 384-well Optiplate (Perkin Elmer), followed by addition of 15 μL of a solution containing L243 acceptor beads and streptavidin donor beads (final concentration of beads was 5 μL/mL). The plates were incubated over night at 18 °C and then measured in enVisionTM, Perkin Elmer. Assay signals measured in OD450 were plotted against the offered peptide concentrations and analyzed by non-linear regression using GraphPad Prism. The peptide concentration resulting in half saturation, the half maximal effective concentration (EC50), was estimated by fitting the experimental data to the equation: Y = Bmax*X/(KD + X), where Y is the OD450 measurement of complexes formed and X is the concentration of ligand (peptide) offered. The EC50 approximates the KD as long as the receptor concentration used is less than the KD, thus avoiding ligand depletion.

HLA-DR1 (DRB1*0101) = HLA-DR1 (DRB1*0101) (Homo sapiens, UniProt P01903+P01911, /P40L/Q125E/R42F/V115G/Y59C); test: as above; details: peptide titrated, 48 h at 18 °C, LOCI, two experiments, KD values only in picture (Table S2)
Protocol: as §1, §2

human DNA = test: Binding of peptides to DNA by EMSA; details: 2% agarose gel
Protocol: Human DNA was extracted from PBMCs, as reported and was fragmented by sonication. Five milligrams of DNA in a volume of 300 μL were fragmented using the Sonics Vibra Cell sonicator (Newtown, CT, USA), with the following settings: 2, 4 and 10 sonication cycles (30 s on, 30 s off, in ice) to obtain DNA fragment sizes between 100 and 1000 bp. The resulting size distribution was controlled by 2% agarose gel electrophoresis.
EMSA was performed by mixing various μM concentrations of LL37 or carb-LL37 or cit-LL37 (or AMP S100A8, as negative control), with appropriate concentration of DNA, which respected the appropriate protein–DNA ratio used in pDC-stimulation assays. DNA alone and the mixtures were run on a 2% agarose gel to evidence the delay in migration of the DNA, due to the binding to the tested proteins. DNA on the gel was visualized by with SYBR Safe DNA gel staining (ThermoFisher Scientific).

[1] = test system: native LL37-P1-specific T-cells (HLA-DRB1*1501 tetramer); test: Peptide-MHC-tetramer staining of T-cells after PBMC stimulation; type: cell-based, human
Protocol: Peptide-MHC-tetramers were from ImmunAware (Denmark). Staining was performed for 40 min with 1microL of tetramer suspension at 37 °C, followed by staining for CD4 (4 °C, 20 min), without washing. After incubation with anti-CD4 antibody, cells were washed, resuspended in PBS and kept at 4 °C. Before flow cytometry-acquisition, cells were labeled with PercP-conjugated 7-AAD to exclude dead cells. The peptide-MHC-tetramers used in this study are: the HLA-DR15-P1: tetramer of HLA-DRB1*1501 LLGDFFRKSKEKIGK (corresponding to the first aa at the NH2-term of the mature native LL37), (PE-conjugated) and the control peptide-MHC-tetramer called DR15-ctr: tetramer of HLA-DRB1*1501 […]1-169-185 (PE-conjugated). The other couple of peptide-MHC-tetramers used were HLA-DRB5*0101 loaded with the same LL37 epitope as above and the control tetramer HLA-DRB5*0101 loaded with the control epitope PVSKMRMATPLLMQA (CLIP-derived).

[2] = test system: native LL37-P1-specific T-cells (HLA-DRB1*1501 tetramer); details: SLE PBMC culture, tetramers of HLA-DR1, HLA-DR15 or HLA-DRB5; cited from earlier work
From the text: We have performed here similar experiments in SLE patients expressing the HLA-DR15 (HLA-DRB1*1501) and/or the DR16 alleles. Since both HLA-DR15- and HLA-DR16-positive individuals co-express DRB5 [[2 ...

pDCs = details: LL37 citrullinated at all five arginines; cited from earlier work
From the text: LL37 is able to activate innate immune cells and B-cells after forming complexes with nucleic acids in a special molecular conformation, suitable for TLR stimulation. PDCs, as well as B-cells, are both activated by LL37-DNA or LL37-RNA complexes.

[3] = 7 days carb-LL37 stimulation, control tetramer, tetramer/CXCR5 plots
[4] = 7 days carb-LL37 stimulation, tetramer loaded with native LL37 epitope P1, tetramer/CXCR5 plots

| Substance | Binding to HLA-DRB1*1501 compared to cit-LL37 (HLA-DR15 (DRB1*1501)) | Binding to HLA-DRB1*1501 compared to cit-LL37 (HLA-DR15 (DRB1*1501); listed as Carb-LL37) | Binding to HLA-DRB1*0101 compared to cit-LL37 (HLA-DR1 (DRB1*0101)) | Binding to HLA-DRB1*0101 compared to cit-LL37 (HLA-DR1 (DRB1*0101); listed as Carb-LL37) | Concentration at which DNA binding ability is lost (human DNA) [µM] | DNA binding ability (human DNA; 3-to-5 experiments) | Percent printed first in Figure S7b plot (gate not recoverable from text) [1, 3] [%] | Percent printed second in Figure S7b plot (gate not recoverable from text) [1, 3] [%] | Percent printed third in Figure S7b plot (gate not recoverable from text) [1, 3] [%] | Percent printed second in Figure S7a plot (gate not recoverable from text) [1, 4] [%] | Percent printed third in Figure S7a plot (gate not recoverable from text) [1, 4] [%] | CXCR5 expression on LL37-specific (tetramer-positive) T-cells ([1]; SLE PBMC stimulated, Figure 5d) | Expansion of T-cells specific for the native LL37 epitope ([1]; SLE PBMC, tetramer staining, versus control tetramer) | Expansion of T-cells specific for both cit-LL37 and native LL37 epitopes [2] | Ability to transform cell-free DNA into an inducer of IFN-I by human pDCs (pDCs) |
| --- | --- | --- | --- | --- | --- | --- | --- | --- | --- | --- | --- | --- | --- | --- | --- |
| L*LGDFFRK*SK*EK*IGKEFK*RIVQRIK*DFLRNLVPRTES [carb-LL37] | equivalent to the binding efficiency of cit-LL37 | binds HLA-DR alleles similarly to cit-LL37 | equivalent to the binding efficiency of cit-LL37 | binds HLA-DR alleles similarly to cit-LL37 | 3 | does not completely abolish the LL37 DNA binding ability | 0.0 | 0.19 | 0.01 | 2.00 | 2.20 | variable but significant expression of the TFH marker CXCR5 | expansion of T-cells specific for the native LL37 epitope |  |  |
| LLGDFFR(cit)KSKEKIGKEFKR(cit)IVQR(cit)IKDFLR(cit)NLVPR(cit)TES [cit-LL37, LL37 citrullinated at all five arginine sites] |  |  |  |  |  |  |  |  |  |  |  |  |  | able to expand T-cells specific for both the cit-LL37 and the native LL37 epitopes | loose ability to transforms the “cell-free” DNA into an inducer of IFN-I by human pDCs |

Reference: PMC7915858, “Complementary Effects of Carbamylated and Citrullinated LL37 in Autoimmunity and Inflammation in Systemic Lupus Erythematosus” (International Journal of Molecular Sciences, 2021)
